Consider three compounds from patent US20020076452A1, “Combinations of sesquiterpene lactones and ditepene lactones or triterpenes for synergistic inhibition of cyclooxygenase-2” (Ashni Naturaceuticals, Inc., priority 2000, published 2002).

The test system of assay [1] is COX-2. The experiment in a line: Inhibition of COX-2 enzyme protein expression in stimulated Jurkat cells (western blot). The settings on record: in the absence and presence of arachidonic acid, dose-range tested. It counts as cell-based, Human.
Description: Chemicals: Anti-COX-2 antibodies may be purchased from Upstate Biotechnology (Lake Placid, N.Y.). Parthenolide and andrographolide may be obtained from Sigma (St. Louis, Mo.). Arachidonic acid (AA), PMA and all other chemical may also be purchased from Sigma and are of the highest purity commercially available.
Human T cell lines: The Jurkat cell line is useful as a model for human T cells and may be obtained from the American Type Culture Collection (Bethesda, Md.). COX-2 is inducible in the Jurkat cell by PMA.
Cell plating: The Jurkat cells are propagated in suspension according to the instructions of the supplier. For experimentation, cells are seeded from a log-phase culture at a density of 1×10^5 cells per mL in 100 mm plates, 20 mL per plate, 3 plates per treatment. Serum concentration in the test medium is maintained at 0.5%.
Complete transfers are accomplished in 25-30 minutes at 500 mA. Membranes used for blotting are blocked by incubating in TBS (Tris buffered saline, 50 mM Tris, 150 mM NaCl, pH 7.5) containing 5% nonfat dry milk for 30 minutes at room temperature. COX-2 protein is visualized by incubation of the blots with the anti-COX-2 antibody in TBST (0.5% Tween 20 in TBS) for two hours and then a second incubation at room temperature with alkaline phosphatase-conjugated secondary antibody diluted 1:1000 in TBST for two hours. The enzymatic reaction is developed for 15 minutes. The molecular weight of COX-2 is estimated by adding a molecular weight standard to reference lanes and staining the membrane filters with amido black 10B.
Blots are translated into TIFF-formatted files with a Microtech 600GS scanner and quantified using Scan Analysis (BIOSOFT, Cambridge, UK). Summary scans are then printed and peak heights are measured directly from the figure. One density unit (Du) is defined as one mm of the resulting peak height.
Appropriate controls receive solvent only. […] Twenty-four hours after treatment, the cells are harvested, lysed and western blotting is done for the determination of COX-2 protein expression.
Assay [2] has as its target T1, COX-2 (Mus musculus, UniProt Q05769).
T1 sequence (Q05769 18-604): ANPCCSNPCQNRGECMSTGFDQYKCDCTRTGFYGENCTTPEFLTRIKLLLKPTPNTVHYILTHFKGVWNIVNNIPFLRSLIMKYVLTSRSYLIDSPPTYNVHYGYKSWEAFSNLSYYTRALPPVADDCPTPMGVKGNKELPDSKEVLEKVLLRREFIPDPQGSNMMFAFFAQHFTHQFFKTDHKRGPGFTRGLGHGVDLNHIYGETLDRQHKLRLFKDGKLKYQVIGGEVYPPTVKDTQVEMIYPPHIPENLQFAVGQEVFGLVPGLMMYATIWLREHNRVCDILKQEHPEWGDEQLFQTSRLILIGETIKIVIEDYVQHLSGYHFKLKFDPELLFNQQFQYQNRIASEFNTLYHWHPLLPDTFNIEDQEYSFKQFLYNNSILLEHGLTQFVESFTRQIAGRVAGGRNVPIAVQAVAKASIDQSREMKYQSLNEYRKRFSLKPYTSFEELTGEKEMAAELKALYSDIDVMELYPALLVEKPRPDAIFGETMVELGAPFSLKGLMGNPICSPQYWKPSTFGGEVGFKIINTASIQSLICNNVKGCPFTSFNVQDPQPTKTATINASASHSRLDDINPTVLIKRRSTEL
Description: cell-based.
Description: Inhibition of COX-2 Mediated Production of PGE2 in RAW 264.7 Cells
General Procedure—RAW 264.7 cells, obtained from ATCC, were grown in DMEM medium and maintained in log phase growth.
On day one of the experiment, the log phase 264.7 cells were plated at 8×10^4 cells per well in 0.2 mL growth medium per well in a 96-well tissue culture plate. After 6 to 8 hours post plating, 100 μL of growth medium from each well was removed and replaced with 100 μL fresh medium. A 1.0 mg/mL solution of LPS, which was used to induce the expression of COX-2 in the RAW 264.7 cells, was prepared by dissolving 1.0 mg of LPS in 1 mL DMSO.
On day two of the experiment, the test materials were prepared as 1000×stock in DMSO. For example, if the final concentration of the test material was to be 10 μg/mL, a 10 mg/mL stock was prepared by dissolving 10 mg of the test material in 1 mL of DMSO. Fresh test materials were prepared on day 2 of the experiment. In 1.7 mL microfuge tubes, 1 mL DMEM without FBS was added to obtain test concentrations of 0.05, 0.10,0.5, and 1.0 μg/mL. 2 μL of the 1000×DMSO stock of the test material was added to the 1 mL of medium without FBS. The tube contained the final concentration of the test material was concentrated 2-fold. The tube was placed in incubator for 10 minutes to equilibrate.
One-hundred mL of medium was removed from each well of the cell plates prepared on day one. […]

As usually defined, the IC50 is the concentration that gives 50% inhibition. The low end stands for inhibition by little substance, the high end for a need for much substance. Consider `C=C1CC[C@@H]2[C@](C)(CO)[C@H](O)CC[C@@]2(C)[C@@H]1C/C=C1/C(=O)OC[C@H]1O` [Andrographolide, andrographolide], for which the “Inhibition of COX-2 protein expression” value in the assay with COX-2 [1] is “little effect”. For the same compound, it took 34.8 µM to reach half-maximal inhibition at COX-2 [2] (IC50). `CC1(C)CC[C@]2(C(=O)O)CC[C@]3(C)C(=CC[C@@H]4[C@@]5(C)CC[C@H](O)C(C)(C)[C@@H]5CC[C@]43C)[C@@H]2C1` [Oleanolic acid, oleanolic acid]: the “Inhibition of COX-2 protein expression” value with COX-2 [1] is on record as “does not inhibit”.

On to `C[C@H]1[C@H](C)CC[C@]2(C(=O)O)CC[C@]3(C)C(=CC[C@@H]4[C@@]5(C)CC[C@H](O)C(C)(C)[C@@H]5CC[C@]43C)[C@H]12` [Ursolic acid, ursolic acid], for which the “Inhibition of COX-2 protein expression” value in the assay on COX-2 [1] is “does not inhibit”. For the same compound, inhibition against COX-2 [2] was half-maximal at 35.3 µM (IC50).
